Source: patent US10633351B2, “Halogenated compound and axially chiral isomer thereof” (MEDSHINE DISCOVERY INC., priority 2016, dated 2020)
Where two headings read alike, the source gives them in different places. Each block holds one compound with its values, some of them ahead of it.

Columns and labels:
[1] = human, 0-144 h, after Lesinurad, cited from earlier work
[2] = hepatocyte, monkey; cited from earlier work
[3] = Metabolite identification after 120 min incubation in human hepatocytes (LC-UV-MSn); format: in vitro ADME; conditions: for Percentage of ultraviolet area: human hepatocytes, 10 μM, 120 min; for metabolites detected: human hepatocyte metabolism, same condition as (±)-Lesinurad
Experimental: The purpose of this experiment was to confirm the metabolites of a series of compounds after incubation for 120 minutes in human hepatocytes using LC-UV-MS^n (n=1-2) detection. MS and MS^2 data were analyzed using MetaboLynx™ software after data collection.
Alter incubating the sample for 2 h, the protein was precipitated by using acetonitrile containing 01.% formic acid, centrifuged, and the supernatant was taken out and dried an under nitrogen, and dissolved and then injected for analysis.

[4] = hepatocyte, rat; cited from earlier work
[5] = Pharmacokinetics in SD rats after IV and PO administration; format: in vivo; conditions: rat; for bioavailability: read-out: Bioavailability F; for C0: read-out: Starting concentration C0; for Cmax: read-out: Peak concentration Cmax; for MRT inf: read-out: Detention time MRT0-inf; for half-life: read-out: Half-life T1/2 (converted)
Experimental: Drug concentrations in plasma of (−)-WX001 and (+)-WX002 were measured by LC/MS/MS method at different times after SD rats as tested animals were administered (−)-WX001 and (+)-WX002 by IV (intravenous injection) and PO (gavage), and the pharmacokinetic behavior of the compound in the present invention in rats was investigated, and its pharmacokinetic characteristics were evaluated.
12 healthy adult male SD rats were divided into 4 groups (each compound contained IV and PO group), 3 rats per group. SD rats were purchased from Shanghai Slac Laboratory Animal CO.LTD, whose animal production license number was SCXK (Shanghai) 2012-0002.
The appropriate amount of the sample was weighed, added a certain amount of DMSO and ultrasonic dissolved, and then was added 20% hydroxypropyl-β-cyclodextrin solution to give tested compound which was 1 mg/mL 5% DMSO/95% 20% HPCD clear solution used for IV and PO administration.
12 SD rats were divided into 4 groups and there were 3 male rats in each group, and administrated by IV, PO, respectively after fasting overnight. The dose of IV was 2 mg/kg and administration volume was 2 mL/kg; the dose of PO was 10 mg/kg and administration volume was 10 mL/kg.
In group of IV, about 200 μL of blood was collected at 0.083, 0.25, 0.5, 1, 2, 4, 6, 8, 24 hour after administration, placed in an anticoagulant tube of K2-EDTA, centrifuged at 3000 rpm for 15 minutes, and then plasma was separated and stored at −80° C. In group of PO, blood was collected at 0.25, 0.5, 1, 2, 4, 6, 8, 24 hour after administration, and the other operations were the same as the group of IV. The plasma samples were pretreated through precipitated protein and the plasma concentration was determined by LC/MS/MS method. A linear range of the analytical method was 4.00-6000 nM.

[6] = hepatocyte, dog; cited from earlier work
[7] = hepatocyte, human; cited from earlier work
[8] = liver microsome, dog; cited from earlier work
[9] = liver microsome, rat; cited from earlier work
[10] = liver microsome, human; cited from earlier work
[11] = liver microsome, monkey; cited from earlier work
URAT-1 = biological target: T1, URAT-1 (Homo sapiens, UniProt Q96S37); assay: Inhibition of 14C-labelled uric acid transport in MDCK cell line stably transfected with the URAT-1 gene; format: cell-based; conditions: for IC50: MDCK cells stably transfected with URAT-1, 14C uric acid 50 uM, read-out: IC50 against URAT-1
T1 construct: expressed in transfected cells; host or cells: MDCK
T1 sequence (Q96S37 1-553): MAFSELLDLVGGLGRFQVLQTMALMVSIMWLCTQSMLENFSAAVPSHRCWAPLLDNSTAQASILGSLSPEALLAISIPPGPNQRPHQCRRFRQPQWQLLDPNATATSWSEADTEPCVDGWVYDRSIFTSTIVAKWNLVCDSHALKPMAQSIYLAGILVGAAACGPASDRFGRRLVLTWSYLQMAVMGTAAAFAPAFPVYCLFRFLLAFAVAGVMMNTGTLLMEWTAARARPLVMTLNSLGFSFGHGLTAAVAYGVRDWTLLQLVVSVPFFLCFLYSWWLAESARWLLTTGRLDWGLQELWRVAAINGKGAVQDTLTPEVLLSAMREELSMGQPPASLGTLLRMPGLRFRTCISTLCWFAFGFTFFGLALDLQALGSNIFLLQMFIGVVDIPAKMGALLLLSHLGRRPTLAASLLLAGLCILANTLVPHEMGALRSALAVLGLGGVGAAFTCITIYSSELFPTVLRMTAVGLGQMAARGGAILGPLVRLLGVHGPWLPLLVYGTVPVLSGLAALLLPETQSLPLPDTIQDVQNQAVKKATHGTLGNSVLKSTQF
Description: The inventors examined the ability of these compounds to inhibit the transport of labeled uric acid by MDCK cell lines stably transfected with the human URAT1 gene.
Determination of the IC50 value of the inhibitory activity of the compound against uric acid reabsorption by the MDCK cell line stably transfected with the URAT-1 (uric acid transporter) gene.
URAT-1 (MDCK) cell line: the MDCK cell line stably transfected with the URAT-1 gene
Cell culture medium: MEM culture medium added 10% fetal bovine serum (FBS), 1% sodium pyruvate and 250 ug/ml G418.
4) cells were diluted to 2.5×10^5/mL with the culture medium, and the diluted cells were added into a rat tail collagen-coated 24-well plate (800 uL/well, 2×10^5 cells/well). The plate was incubated overnight at 37° C. in a 5% CO2 incubator.
1) cells were seeded into 24-well plate, and supernatant was discarded after 16-18 h. The cells were washed twice using 600 ul HBSS buffer.
2) HBSS buffer was removed and 180 ul of HBSS buffer was added into each well again.
1) powder of compounds was dissolved into 100% DMSO, and diluted into 6 concentration points by 3-fold dilution, or into 2 concentration points by 10-fold dilution, and the highest starting concentration was 50 mM.
2) 5 ul DMSO solution in step 1) was transferred into 120 ul of HBSS buffer to make a 25-fold dilution.
3) 10 ul diluted solution in step 2) was added into 24-well plate, and the plate was incubated for 15 min at 37° C. in a 5% CO2 incubator. The final concentration of DMSO was 0.2%. The control well contained 0.2% DMSO without compound.
^14C-labelled uric acid was diluted and added into plate, and the final concentration was 50 uM. The plate was incubated for 10 min at 37° C. in a 5% CO2 incubator. After supernatant was discarded, cells were washed with HBSS buffer twice. Cells was lysed with 0.1M NaOH. And then cell lysis solution was collected into liquid scintillation tube and added with liquid scintillation solution. The signal was read by liquid scintillation counter Tri-Carb.
URAT-1 inhibition by the treatment of the compounds was analyzed by calculating the percentage of inhibition according to […] data. Non-linear curve fitting analysis on the percent inhibition (inh %) data using GraphPad Prism software generate the IC50 value.

[12] = male, SD, plasma, po, 10 mg/kg, PO 10 mpk
[13] = male, SD, plasma, iv, 2 mg/kg, IV 2 mpk

Compound: O=C(O)CSc1nncn1-c1ccc(C2CC2)c2ccccc12 [Compound M2]
Percentage of administered dose ([1]; Feces): 4.8%
Percentage of administered dose ([1]; Urine): 0.3%

Compound: O=C(O)CSc1nnc(Br)n1-c1ccc(C2CC2)c2ccccc12 (racemic) [(±)-Lesinurad, Lesinurad, reference compound]
amount of metabolite / parent found (Total 100) [2]: 98.1
Percentage of ultraviolet area [3]: 95.60%
amount of metabolite / parent found (Total 100) [4]: 100
bioavailability [5, 12]: 84%
Area under curve AUC0-inf ([5]; IV 2 mpk): 14.823 µM·h
C0 ([5]; IV 2 mpk): 11.6 µM
Area under curve AUC0-inf ([5]; PO 10 mpk): 62.491 µM·h
Cmax ([5]; PO 10 mpk): 14.5 µM
amount of metabolite / parent found (Total 100) [6]: 100
amount of metabolite / parent found (Total 100) [7]: 92.1
amount of metabolite / parent found (Total 100) [8]: 100
amount of metabolite / parent found (Total 100) [9]: 100
amount of metabolite / parent found (Total 100) [10]: 100
amount of metabolite / parent found (Total 100) [11]: 92.1
Percentage of administered dose ([1]; Feces): 1.5%
Percentage of administered dose ([1]; Urine): 31.3%

Compound: O=C(O)CSc1nncn1-c1ccc(C2(O)CC2)c2ccccc12 [Compound M5]
Percentage of administered dose ([1]; Feces): 3.6%

Compound: O=C(O)CSc1nnc(Br)n1-c1ccc(C2(O)CC2)c2ccccc12 [Compound M3]
amount of metabolite / parent found (Total 100) [4]: not detected
amount of metabolite / parent found (Total 100) [6]: not detected
amount of metabolite / parent found (Total 100) [11]: 7.9
Percentage of administered dose ([1]; Feces): 0.3%
Percentage of administered dose ([1]; Urine): 12.0%

Compound: O=C(O)CSc1nnc(Br)n1-c1ccc(C2CC2)c2c1C=CC(O)C2O (stereo not drawn) [Compound M4]
amount of metabolite / parent found (Total 100) [4]: not detected
amount of metabolite / parent found (Total 100) [6]: not detected
Percentage of administered dose ([1]; Feces): 5.0%
Percentage of administered dose ([1]; Urine): 15.7%

Second part, led by results:

IC50 (URAT-1): 1.4 µM
Compound: CC(C)(Sc1nnc(Br)n1-c1c(Cl)cc(C2CC2)c2ccccc12)C(=O)O (single isomer, unassigned) [(+)-WX005]
inhibitory activity against URAT-1 compared with reference (±)-Lesinurad (URAT-1; URAT1 MDCK cells): significantly improved inhibitory activity

metabolites detected [3]: no metabolites were detected
Percentage of ultraviolet area [3]: 100%
IC50 (URAT-1): 8 µM
fold inhibitory activity in vitro compared to the other isomer (+)-WX002 (URAT-1; URAT1 MDCK cells): more than 3 fold
Tmax ([5]; male, SD, plasma, 10 mg/kg, PO 10 mpk, read-out: Peak time Tmax): 1.67 h
AUC(0-inf) ([5]; male, SD, plasma, iv, 2 mg/kg, IV 2 mpk, read-out: Area under curve AUC0-inf): 33 µM·h
clearance ([5]; male, SD, plasma, iv, 2 mg/kg, IV 2 mpk, read-out: Clearance rate Cl): 2.31 mL/min/kg
MRT inf [5, 13]: 4.4 h
half-life [5, 13]: 2.86 h
C0 [5, 13]: 11.7 µM
Vd ([5]; male, SD, plasma, iv, 2 mg/kg, IV 2 mpk, read-out: apparent volume of distribution Vdss): 0.61 L/kg
bioavailability [5, 12]: 94%
MRT inf [5, 12]: 7.18 h
half-life [5, 12]: 4.86 h
Cmax [5, 12]: 20.6 µM
Area under curve AUC0-inf ([5]; PO 10 mpk, 10 mg/kg): 154.895 µM·h
Compound: O=C(O)CSc1nnc(Br)n1-c1c(Cl)cc(C2CC2)c2ccccc12 (single isomer, unassigned) [(−)-WX001]
inhibitory activity against URAT-1 compared with reference (±)-Lesinurad (URAT-1; URAT1 MDCK cells): significantly improved inhibitory activity

IC50 (URAT-1): 10.4 µM
Compound: O=C(O)CSc1nnc(Br)n1-c1c(Cl)cc(C2CC2)c2ccccc12 (racemic) [(±)-WX003]

metabolites detected [3]: no metabolites were detected
Percentage of ultraviolet area [3]: 100%
IC50 (URAT-1): > 20 µM
Area under curve AUC0-inf ([5]; IV 2 mpk, 2 mg/kg): 16.775 µM·h
Clearance rate Cl ([5]; IV 2 mpk, 2 mg/kg): 4.56 mL/min/kg
Detention time MRT0-inf ([5]; IV 2 mpk, 2 mg/kg): 3.58 h
Half-life T1/2 ([5]; IV 2 mpk, 2 mg/kg): 3.51 h
apparent volume of distribution Vdss ([5]; IV 2 mpk, 2 mg/kg): 0.97 L/kg
C0 ([5]; IV 2 mpk, 2 mg/kg): 12.9 µM
Peak time Tmax ([5]; PO 10 mpk): 1.67 h
Area under curve AUC0-inf ([5]; PO 10 mpk, 10 mg/kg): 77.436 µM·h
Bioavailability F ([5]; PO 10 mpk, 10 mg/kg): 76%
Detention time MRT0-inf ([5]; PO 10 mpk, 10 mg/kg): 4.82 h
Half-life T1/2 ([5]; PO 10 mpk, 10 mg/kg): 2.68 h
Cmax ([5]; PO 10 mpk, 10 mg/kg): 12 µM
Compound: O=C(O)CSc1nnc(Br)n1-c1c(Cl)cc(C2CC2)c2ccccc12 (single isomer, unassigned) [(+)-WX002]
inhibitory activity against URAT-1 compared with reference (±)-Lesinurad (URAT-1; URAT1 MDCK cells): significantly improved inhibitory activity

IC50 (URAT-1): 1.1 µM
Compound: CC(C)(Sc1nnc(Br)n1-c1c(Cl)cc(C2CC2)c2ccccc12)C(=O)O (single isomer, unassigned) [(−)-WX004]
inhibitory activity against URAT-1 compared with reference (±)-Lesinurad (URAT-1; URAT1 MDCK cells): significantly improved inhibitory activity
